Results: PMC10364322, “Evaluation of chronic drug-induced electrophysiological and cytotoxic effects using human-induced pluripotent stem cell-derived cardiomyocytes (hiPSC-CMs)” (Frontiers in Pharmacology, 2023)
Like-named read-outs stand apart in the source and are kept apart here.

How the values were obtained:
[1] = system: hiPSC-CMs (iCell-Cardiomyocytes^2)
Protocol: (§1) Cells were seeded according to the instructions of the cell provider, in fibronectin-coated 48-well MEA plates (Axion Cytoview Plates, M768-tMEA-48B) at a density suited to form a monolayer (i.e., 50 K/well) and maintained in culture in a stage incubator (37°C, 5% CO2).
(§2) At least 4 h before the beginning of the baseline measurements, a full medium exchange was performed (to a final volume of 400 µL per well). Neat compounds were dissolved in 100% DMSO at a stock concentration 1000-fold the highest target concentration. […] Afterwards, these stock solutions were diluted with Maintenance medium (CDi), to 10-fold the intended concentration. The final DMSO concentration in test solutions and vehicle control was 0.1%.
(§3) Spontaneous electrical activity was recorded in hiPSC-CMs monolayers as field potentials using the Maestro Pro MEA instrument (Axion Biosystems, Atlanta, GA, United States), which allows the maintenance of accurate temperature and CO2 levels (37°C, 5% CO2). After the plate was placed in the Maestro Pro and allowed to equilibrate for about 10 min, baseline acquisition of field potential and impedance signals was initiated and lasted for 5 min each. […] As impedance measures resistance of an applied alternating current through the hiPSC-CMs monolayer, a reduction in the attachment of hiPSC-CMs to the bottom of the well due to cell death or changes in the monolayer morphology, causes a drop in the impedance signal.
The potential presence of various arrhythmic events was evaluated and noted during the data analysis.
(§4) After the acquisition of all timepoint measurements, raw data were loaded into the data analysis software Axion Cardiac Analysis Tool (V.3.2.3). […] A.csv file containing information on the FP parameters per well, per time point, was then generated and used as input to the in-house data management system (SPEcII v.3.4, Unlimit-IT, Geel, Belgium), where descriptive statistics were calculated. Summary values at different time points after compound addition are expressed as percent change from baseline and shown as mean ± standard deviation (SD).
(§5) The nonparametric Wilcoxon-Mann Whitney Test was used to compare the percent change from the baseline (Δ%) value between the group treated with the compound at a given concentration and the group treated with the DMSO at each matching time points. A two-sided test at 5% significance level was considered. […] To assess the physiological relevance of changes, a tolerance interval of DMSO experiments was calculated at each time point, for each parameter. […] TIs indicate an interval where, with a certain confidence level (1- α = 0.95), a specified proportion (p = 0.80) of percent change for DMSO data falls. The lower and upper limits based on the TI values were used as cut-offs for the interpretation of the changes. For the cytotoxicity assays, measurements of fluorescence (after background fluorescence subtraction) from wells treated with the compounds were normalized by the average value of vehicle experiments (DMSO 0.1%) to obtain a DMSO-corrected, delta/delta percent change. Experiments from each condition, as delta/delta percent, were averaged and expressed as mean ± SD. Statistical analysis was performed using a non-parametric test (Kruskal-Wallis) and each treatment condition was compared to the relative DMSO 0.1%. Differences were considered statistically significant when the p-value was smaller than 0.05.

[2] = system: hiPSC-CMs (iCell-Cardiomyocytes^2); test: MEA impedance (cytotoxicity readout) in hiPSC-CMs
Protocol: as §1, §2, §3, §4, §5

[3] = free therapeutic Cmax in humans; ref FDA-approved drug packages, PharmaPendium; cited from earlier work

BR (beating rate), % change from baseline ([1]; 1 µM, 2h): 8±1%
FPD (field-potential duration), % change from baseline ([1]; 1 µM, 2h): -1±2.2%
FPDc (field-potential duration corrected by beat-rate), % change from baseline ([1]; 1 µM, 2h): 1.6±2.2%
BR (beating rate), % change from baseline ([1]; 1 µM, 24h): 16±2%
FPD (field-potential duration), % change from baseline ([1]; 1 µM, 24h): -2.8±1.5%
FPDc (field-potential duration corrected by beat-rate), % change from baseline ([1]; 1 µM, 24h): 2.1±1.1%
BR (beating rate), % change from baseline ([1]; 1 µM, 48h): 3±2%
FPD (field-potential duration), % change from baseline ([1]; 1 µM, 48h): 4.3±3%
FPDc (field-potential duration corrected by beat-rate), % change from baseline ([1]; 1 µM, 48h): 5.3±2.8%
BR (beating rate), % change from baseline ([1]; 1 µM, 72h): -2±3%
FPD (field-potential duration), % change from baseline ([1]; 1 µM, 72h): 8.1±4.8%
FPDc (field-potential duration corrected by beat-rate), % change from baseline ([1]; 1 µM, 72h): 7±3.6%
BR (beating rate), % change from baseline ([1]; 1 µM, 96h): -21±2 %
FPD (field-potential duration), % change from baseline ([1]; 1 µM, 96h): 16.9±3%
FPDc (field-potential duration corrected by beat-rate), % change from baseline ([1]; 1 µM, 96h): 8.1±2%
BR (beating rate), % change from baseline ([1]; 3 µM, 72h): -4±3%
FPD (field-potential duration), % change from baseline ([1]; 3 µM, 72h): 9.6±3.7%
FPDc (field-potential duration corrected by beat-rate), % change from baseline ([1]; 3 µM, 72h): 8.4±2.9%
BR (beating rate), % change from baseline ([1]; 3 µM, 96h): -20±4 %
FPD (field-potential duration), % change from baseline ([1]; 3 µM, 96h): 18.2±7.7%
FPDc (field-potential duration corrected by beat-rate), % change from baseline ([1]; 3 µM, 96h): 9.6±6.7%
BR (beating rate), % change from baseline ([1]; 3 µM, 2h): 8±1%
FPD (field-potential duration), % change from baseline ([1]; 3 µM, 2h): 0.7±2.8%
FPDc (field-potential duration corrected by beat-rate), % change from baseline ([1]; 3 µM, 2h): 3.1±2.9%
BR (beating rate), % change from baseline ([1]; 3 µM, 24h): 16±3%
FPD (field-potential duration), % change from baseline ([1]; 3 µM, 24h): -2.7±2.9%
FPDc (field-potential duration corrected by beat-rate), % change from baseline ([1]; 3 µM, 24h): 2.3±2.9%
BR (beating rate), % change from baseline ([1]; 3 µM, 48h): 2±2%
FPD (field-potential duration), % change from baseline ([1]; 3 µM, 48h): 5.1±3.9%
FPDc (field-potential duration corrected by beat-rate), % change from baseline ([1]; 3 µM, 48h): 5.7±3.9%
BR (beating rate), % change from baseline ([1]; 10 µM, 2h): 8±3%
FPD (field-potential duration), % change from baseline ([1]; 10 µM, 2h): 0.5±3.7%
FPDc (field-potential duration corrected by beat-rate), % change from baseline ([1]; 10 µM, 2h): 3±3.1%
BR (beating rate), % change from baseline ([1]; 10 µM, 24h): 18±6 %
FPD (field-potential duration), % change from baseline ([1]; 10 µM, 24h): -3.1±4.9%
FPDc (field-potential duration corrected by beat-rate), % change from baseline ([1]; 10 µM, 24h): 2.2±3.9%
BR (beating rate), % change from baseline ([1]; 10 µM, 48h): 3±4%
FPD (field-potential duration), % change from baseline ([1]; 10 µM, 48h): 6.6±2.8%
FPDc (field-potential duration corrected by beat-rate), % change from baseline ([1]; 10 µM, 48h): 7.4±2.1%
BR (beating rate), % change from baseline ([1]; 10 µM, 72h): -1±8%
FPD (field-potential duration), % change from baseline ([1]; 10 µM, 72h): 9.6±7.3%
FPDc (field-potential duration corrected by beat-rate), % change from baseline ([1]; 10 µM, 72h): 8.9±4.3%
BR (beating rate), % change from baseline ([1]; 10 µM, 96h): -19±5 %
FPD (field-potential duration), % change from baseline ([1]; 10 µM, 96h): 18.3±5.7%
FPDc (field-potential duration corrected by beat-rate), % change from baseline ([1]; 10 µM, 96h): 10.4±4.4%
BR (beating rate), % change from baseline ([1]; 30 µM, 2h): 5±4%
FPD (field-potential duration), % change from baseline ([1]; 30 µM, 2h): -0.1±3.5%
FPDc (field-potential duration corrected by beat-rate), % change from baseline ([1]; 30 µM, 2h): 1.6±2.8%
BR (beating rate), % change from baseline ([1]; 30 µM, 24h): 15±6%
FPD (field-potential duration), % change from baseline ([1]; 30 µM, 24h): -4.2±3.4%
FPDc (field-potential duration corrected by beat-rate), % change from baseline ([1]; 30 µM, 24h): 0.5±2.7%
BR (beating rate), % change from baseline ([1]; 30 µM, 48h): 1±5%
FPD (field-potential duration), % change from baseline ([1]; 30 µM, 48h): 5.6±1.7%
FPDc (field-potential duration corrected by beat-rate), % change from baseline ([1]; 30 µM, 48h): 6±2.2%
BR (beating rate), % change from baseline ([1]; 30 µM, 72h): -3±8%
FPD (field-potential duration), % change from baseline ([1]; 30 µM, 72h): 8.8±5.4%
FPDc (field-potential duration corrected by beat-rate), % change from baseline ([1]; 30 µM, 72h): 7.7±3.8%
BR (beating rate), % change from baseline ([1]; 30 µM, 96h): -20±4 %
FPD (field-potential duration), % change from baseline ([1]; 30 µM, 96h): 16.4±1.3%
FPDc (field-potential duration corrected by beat-rate), % change from baseline ([1]; 30 µM, 96h): 7.9±2.1%
Compound: CC1(C)S[C@@H]2[C@H](NC(=O)[C@H](N)c3ccc(O)cc3)C(=O)N2[C@H]1C(=O)O [Amoxicillin]
Imp (impedance), % change from baseline ([2]; 1 µM, 2h): 2±4%
Imp (impedance), % change from baseline ([2]; 1 µM, 24h): 9±7%
Imp (impedance), % change from baseline ([2]; 1 µM, 48h): -2±4%
Imp (impedance), % change from baseline ([2]; 1 µM, 72h): 4±3 %
Imp (impedance), % change from baseline ([2]; 1 µM, 96h): 0±8%
Imp (impedance), % change from baseline ([2]; 3 µM, 72h): 1±4%
Imp (impedance), % change from baseline ([2]; 3 µM, 96h): -2±6%
Imp (impedance), % change from baseline ([2]; 3 µM, 2h): 2±3%
Imp (impedance), % change from baseline ([2]; 3 µM, 24h): 7±6%
Imp (impedance), % change from baseline ([2]; 3 µM, 48h): -3±6%
Imp (impedance), % change from baseline ([2]; 10 µM, 2h): 2±3%
Imp (impedance), % change from baseline ([2]; 10 µM, 24h): 7±6%
Imp (impedance), % change from baseline ([2]; 10 µM, 48h): -2±3%
Imp (impedance), % change from baseline ([2]; 10 µM, 72h): 1±4%
Imp (impedance), % change from baseline ([2]; 10 µM, 96h): -1±6%
Imp (impedance), % change from baseline ([2]; 30 µM, 2h): 2±3%
Imp (impedance), % change from baseline ([2]; 30 µM, 24h): 2±4%
Imp (impedance), % change from baseline ([2]; 30 µM, 48h): -1±3%
Imp (impedance), % change from baseline ([2]; 30 µM, 72h): -6±4%
Imp (impedance), % change from baseline ([2]; 30 µM, 96h): -4±5%
Free Cmax [3]: 16.1 µM
